The values below come from ChEMBL document CHEMBL2424610, “Design, synthesis, and evaluation of 4-(substituted)phenyl-2-thioxo-3,4-dihydro-1H-chromino[4,3-d]pyrimidin-5-one and 4-(substituted)phenyl-3,4-dihydro-1H-chromino[4,3-d]pyrimidine-2,5-dione analogs as antitubercular agents” (Med Chem Res, 2013).

Assay [1] deals with Vero. In words: Cytotoxicity against african green monkey Vero cells. The following applies: Chlorocebus sabaeus. The format is cell-based.
The test system of assay [2] is Mycobacterium tuberculosis. Nature of the assay: Antitubercular activity against Mycobacterium tuberculosis H37Rv ATCC 27294 assessed as growth inhibition at 128 uM by luminescence-based low oxygen-recovery assay. The format is functional. The following applies: read-out: GI.
In assay [3] the test system is Mycobacterium tuberculosis. Nature of the assay: Antitubercular activity against Mycobacterium tuberculosis H37Rv ATCC 27294 assessed as growth inhibition at 128 uM after 4 days by microplate Alamar blue assay. The format is functional. The following applies: H37Rv ATCC 27294, 96 h, read-out: GI. (Alamar Blue is a resazurin reagent that responds to reducing activity.)

Broadly, the IC50 is the concentration at which inhibition is half-maximal. Turning to `COc1ccc(C2NC(=O)Nc3c2c(=O)oc2ccccc32)cc1OC` (stereo not drawn), in assay [1], the IC50 was more than 128 µM. Moreover, the inhibition of growth at 128 µM in assay [2] and in assay [3] was 0% each time.
As for `COc1cc(C2NC(=S)Nc3c2c(=O)oc2ccccc32)ccc1O` (stereo not drawn), the half-inhibitory concentration (IC50) in assay [1] is more than 128 µM. Further, the inhibition of growth at 128 µM in assay [2] and in assay [3] was 0% each time.
With `COc1ccc(C2NC(=S)Nc3c2c(=O)oc2ccc(C)cc32)cc1` (stereo not drawn), the IC50 in assay [1] was more than 128 µM. Also, the inhibition of growth at 128 µM in assay [2] is 1%; in assay [3], 0%.
The like results for `O=C1Nc2c(c(=O)oc3ccccc23)C(c2cccc(Br)c2)N1` (stereo not drawn) were, in that order, 106 µM, 15% and 7%.
`COc1ccc(C2NC(=S)Nc3c2c(=O)oc2ccc(C)cc32)cc1OC` (stereo not drawn) displayed a half-inhibitory concentration (IC50) in assay [1] of more than 128 µM. Besides, the results for the inhibition of growth at 128 µM in assay [2] and in assay [3] were 14% and 9%, respectively.
The like results for `O=c1oc2ccccc2c2c1C(c1cccc(Br)c1)NC(=S)N2` (stereo not drawn) were, in that order, 47.4 µM, 59% and 12%.
For `COc1ccc(C2NC(=O)Nc3c2c(=O)oc2ccc(C)cc32)cc1OC` (stereo not drawn) the same measures were more than 128 µM, 35% and 55%.
Compound `COc1ccc(C2NC(=S)Nc3c2c(=O)oc2ccccc32)cc1` (stereo not drawn) gave an IC50 in assay [1] of more than 128 µM. For the same compound, the inhibition of growth at 128 µM in assay [2] and in assay [3] was 0% in each case.
For the compound `O=C1Nc2c(c(=O)oc3ccccc23)C(c2ccccc2O)N1` (stereo not drawn), the IC50 in assay [1] was found to be 122 µM. Besides, the inhibition of growth at 128 µM in assay [2] stood at 37%; in assay [3] it was 45%.
Take `COc1ccc(C2NC(=S)Nc3c2c(=O)oc2ccccc32)cc1OC` (stereo not drawn): in assay [1], the IC50 was more than 128 µM. In addition, the inhibition of growth at 128 µM in assay [2] and in assay [3] was 0% in each case.
In assay [1], `COc1ccc(C2NC(=O)Nc3c2c(=O)oc2ccc(C)cc32)cc1` (stereo not drawn) came in with a concentration for half-maximal inhibition (IC50) of 101 µM. Further, the inhibition of growth at 128 µM in assay [2] was determined as 62%; in assay [3] it was 58%.
In assay [1], `COc1ccc(C2NC(=O)Nc3c2c(=O)oc2ccccc32)cc1` (stereo not drawn) had an IC50 of 119 µM. Further, the inhibition of growth at 128 µM in assay [2] is 4%; in assay [3] it was 8%.
The like results for `O=C1Nc2c(c(=O)oc3ccccc23)C(c2ccccc2)N1` (stereo not drawn) were, in that order, 84.7 µM, 17% and 0%.
In assay [1], `Cc1ccc2oc(=O)c3c(c2c1)NC(=S)NC3c1cccc(Br)c1` (stereo not drawn) returned an IC50 of 47.6 µM. Moreover, the inhibition of growth at 128 µM came to 61% in assay [2] and 32% in assay [3].
For the compound `COc1cc(C2NC(=O)Nc3c2c(=O)oc2ccccc32)ccc1O` (stereo not drawn), in assay [1], the IC50 was more than 128 µM. For the same compound, the inhibition of growth at 128 µM came to 1% in assay [2] and 37% in assay [3].
The like results for `O=c1oc2ccccc2c2c1C(c1ccccc1)NC(=S)N2` (stereo not drawn) were, in that order, more than 128 µM, 20% and 10%.
